Measurements taken from patent US10071095B2, “1,2,4-triazolo [4,3-A] pyridine derivatives and their use for the treatment of neurological and psychiatric disorders” (JANSSEN PHARMACEUTICALS, INC., priority 2009, dated 2018).
Where two headings read alike, the source gives them in different places. Marks after values point to notes of the source that are not given here.

Key:
human mGluR2 receptor = molecular target: T1, human mGluR2 receptor (Homo sapiens, UniProt Q14416); experiment: [35S]GTPγS binding assay, positive allosteric modulation (GTPγS-PAM) in presence of EC20 glutamate; format: biochemical; conditions: in presence of glutamate at EC20, average pEC50 if more experiments, ‡ means tested once; for EC50: read-out: GTPγS - hR2 PAM pEC50 (converted)
T1 construct: expressed in transfected cells; host or cells: CHO cells
T1 sequence (Q14416 19-872): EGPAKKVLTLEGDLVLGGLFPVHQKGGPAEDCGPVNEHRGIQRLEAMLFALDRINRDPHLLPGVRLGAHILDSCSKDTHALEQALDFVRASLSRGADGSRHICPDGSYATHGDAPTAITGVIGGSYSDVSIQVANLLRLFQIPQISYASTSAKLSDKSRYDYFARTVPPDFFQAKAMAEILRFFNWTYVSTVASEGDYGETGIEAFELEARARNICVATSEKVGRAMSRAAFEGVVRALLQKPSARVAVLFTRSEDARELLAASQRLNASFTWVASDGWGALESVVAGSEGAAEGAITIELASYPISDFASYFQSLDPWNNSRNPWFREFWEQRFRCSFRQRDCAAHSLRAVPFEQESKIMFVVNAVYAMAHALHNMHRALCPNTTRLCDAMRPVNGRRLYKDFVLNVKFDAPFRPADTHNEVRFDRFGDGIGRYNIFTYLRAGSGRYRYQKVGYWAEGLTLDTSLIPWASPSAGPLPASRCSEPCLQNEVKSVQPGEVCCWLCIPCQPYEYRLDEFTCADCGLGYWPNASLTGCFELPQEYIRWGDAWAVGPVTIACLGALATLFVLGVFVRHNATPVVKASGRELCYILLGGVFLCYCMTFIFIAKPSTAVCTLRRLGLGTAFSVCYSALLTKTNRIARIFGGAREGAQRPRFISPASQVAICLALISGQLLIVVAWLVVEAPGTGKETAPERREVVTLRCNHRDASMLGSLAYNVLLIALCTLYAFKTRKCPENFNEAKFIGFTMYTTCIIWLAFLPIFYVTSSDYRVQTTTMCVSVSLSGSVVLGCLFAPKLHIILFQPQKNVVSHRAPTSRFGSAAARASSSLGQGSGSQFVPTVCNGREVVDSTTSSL
How it was run: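 Membranes from butyrate-stimulated CHO cells expressing human mGluR2 (7 μg protein) preincubated 30 min at 30°C with compound plus ~EC20 glutamate in HEPES pH 7.4, 100 mM NaCl, 3 mM MgCl2, 10 μM GDP, 10 μg/ml saponin. [35S]GTPγS (0.1 nM) incorporation over 30 min at 30°C measured by filtration and scintillation counting.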

[1] = system: PCP-induced hyperlocomotion in male NMRI mice; experiment: Phencyclidine (PCP)-induced hyperlocomotion in mice (video tracking); format: in vivo; conditions: for ED50: Mus musculus, read-out: Mice ED50 (mg/kg) PCP-Inh.; for Mice ED50 (mg/kg) PCP-Inh. / Mice ED50 (mg/kg) PCP-Inh., estimated ED50 (footnote a): inhibition of PCP-induced hyperlocomotion; for Mice ED50 (mg/kg) PCP-Inh.: dose at which 50% of the tested animals show the effect; for Mice ED50 (mg/kg) PCP-Inh., estimated ED50 (footnote a): estimated ED50 values (n = 3 per dose; 4-fold separation between doses)
Description: Motor Activity (Video Tracking)
Apparatus and General Procedure
On the day of experiments, the mice were brought into the procedural room. They were housed individually and allowed to acclimate for at least a half hour prior to testing. Although the studies were conducted during the light cycle (from 8:00 to 16:00 h), the procedure room was only sparsely lit (3 to 30 LUX) to provide better contrast for the video tracking. Local lighting was used for the injection procedures. During each trial, an individual mouse was placed in an open field arena (grey PVC cylinder with a height of 40 cm and a diameter of 22.5 cm). Each arena was placed on an infrared LED (8×8 LEDs)-lit box (white PVC squared box; 40×40 cm^2; height 12.5 cm). Each mouse was placed in the center of the arena and allowed to explore freely for 30 min. After each trial, the arena was cleaned with a wet and subsequently with a dry cleaning cloth. An infrared sensitive tube camera and a white light source (in arena: 4-7 LUX) were mounted to the ceiling above the observation chamber to record and input activity to a computer. Animal behavior was recorded and analyzed using the Noldus Ethovision XT Video Tracking System (Version 3.1; Noldus, Wageningen, The Netherlands). The total distance traveled (cm) was calculated. Data were then exported to data management systems for further analysis and reporting.
Phencyclidine (PCP)-Induced Hyperlocomotion in Mice
Test compound or solvent was administered at a pre-defined time before measurement (standard: 30 min) to male NMRI mice that were challenged with phencyclidine (PCP; 5 mg/kg, s.c.) 30 min before measurement. Activity was measured for a period of 30 min.

[2] = system: conditioned avoidance response in male Wiga Wistar rats; experiment: Conditioned avoidance response (CAR) test in rats; format: in vivo; conditions: for ED50: Rattus norvegicus, po, read-out: ED50 (mg/kg) CAR-Inh.
Text: Conditioned Avoidance Response (CAR) Test
The apparatus consisted of an inner box surrounded by an outer box. The inner box was composed of four walls of transparent, synthetic material (length×width×height: 30×30×30 cm), an open top, and a grid floor made of 15 pairs of iron bars (2 mm diameter; 6 mm inter-bar distance). Odd and even bars were connected with a source of alternative current (1.0 mA; Coulbourn Instruments Solid State Shocker/Distributor), which could be interrupted by a switch. The outer box was composed of the same material (length×width×height: 40×40×36 cm), also with an open top, with a distance of 5 cm between the inner and outer box on all sides. To decrease the amount of environmental stimuli, three walls of the outer box were made non-transparent. The front wall was left transparent to allow the necessary inspection of the animal during the test. The upper edge of the outer and inner box served as a target for the rats on which to jump with fore- and hind-paws, respectively.
Avoidance Conditioning and Selection of Animals
From their arrival in the laboratory on the experimental day, male Wiga Wistar rats (230±30 g) were housed in individual cages provided with bedding material.
Latency to avoidance was recorded. The median avoidance response obtained over the three experimental sessions for each rat were used for further calculations.

[3] = system: memantine-induced 2DG uptake in mouse brain (hippocampus); experiment: Reversal of memantine-induced brain activation ([14C]2DG uptake) in mice; format: in vivo; conditions: for L.A.D. (lowest active dose for significant reduction of 2DG uptake in hippocampus vs memantine response): mice C57BL/6, s.c., memantine 20 mg/kg s.c., p<0.05
Description: Reversal of Memantine-Induced Brain Activation in Mice
NMDA receptor hypofunction is hypothesized to be involved in schizophrenia.
Autoradiographic assessment of radiolabeled [^14C]-2-deoxyglucose ([^14C]2DG) uptake is commonly used to investigate brain activation. In humans, cerebral blood flow is increased in specific brain regions after administration of a subanaesthetic dose of ketamine.
Male mice (C57BL/6, weight 24-28 g, fasted overnight; n=10 animals per group) were treated with vehicle or test compound (s.c.) in randomized order (t=0 min). Memantine (20 mg/kg, s.c.) was injected 30 min later (t=30 min). At t=45 min, [^14C]2DG (0.16 μCi/g) was administered intraperitoneally (i.p.), followed by a 45 min uptake period. Animals were decapitated (t=90 min), plasma glucose levels measured, the brain removed, rapidly frozen and stored at −20° C. until sectioned. Brain sections were exposed together to a precalibrated [^14C]standard on film, which was developed after four days of exposure. Local tissue [^14C]concentration (nCi/mg tissue equivalent—TEQ—) in each region of interest was determined.
Data was analyzed statistically using a two-way ANOVA analysis followed by post-hoc tests (memantine response versus reversal by the compound). The results are shown in table 5 below, expressed as lowest active dose (L.A.D.) required to exert a statistically significant (p<0.05) reduction of 2DG uptake in the hippocampus compared to memantine response.

[4] = compound administered orally (*); a)/b) = estimated ED50 values
[5] = not marked * (not oral; injection per method); b) = estimated ED50 values (n = 3 per dose)

## FC(F)(F)Cc1nnc2c(Cl)c(N3CCC(F)(c4ccccc4)CC3)ccn12 [compound 3, 8-Chloro-7-(4-fluoro-4-phenyl-1-piperidinyl)-3-(2,2,2-trifluoroethyl)-1,2,4-triazolo[4,3-a]pyridine]
Human mGluR2 receptor
  GTPγS - hR2 PAM pEC50: 6.94
[1]
  ED50: 15.2 mg/kg
  inhibition of PCP-induced hyperlocomotion in mice (in words): inhibited
[2]
  inhibition of the conditioned avoidance response in rats (in words): inhibited
[2]; [4]
  ED50: 14.1 mg/kg
[2]; [5]
  ED50: 10.7 mg/kg
[3]
  L.A.D. (lowest active dose for significant reduction of 2DG uptake in hippocampus vs memantine response): ≤2.5 mg/kg, s.c.

## FC(F)(F)C1(c2ccccc2)CCN(c2ccn3c(CC4CC4)nnc3c2Cl)CC1 [compound 15, 8-Chloro-3-(cyclopropylmethyl)-7-(4-trifluoromethyl-4-phenyl-piperidin-1-yl)-1,2,4-triazolo[4,3-a]pyridine]
Human mGluR2 receptor
  GTPγS - hR2 PAM pEC50: 6.75
[1]
  ED50: > 10 mg/kg
[2]; [4]
  ED50: ≥ 40 mg/kg
other
  melting point: 276.7 °C

## FC(F)(F)c1c(N2CCC3(CC2)COc2ccccc23)ccn2c(CC3CC3)nnc12 [compound 17, 1′-[3-cyclopropylmethyl-8-(trifluoromethyl)[1,2,4]triazolo[4,3-a]pyridin-7-yl]-spiro[1-benzofuran-3,4′-piperidine]]
Human mGluR2 receptor
  EC50: 35.5 nM
[1]
  ED50: 15.2 mg/kg
  inhibition of PCP-induced hyperlocomotion in mice (in words): inhibited
other
  melting point: > 300 °C

## FC(F)(F)c1c(N2CCN(c3ccccc3)CC2)ccn2c(CC3CC3)nnc12 [compound 76]
Human mGluR2 receptor
  GTPγS - hR2 PAM pEC50: 6.93
[1]
  inhibition of PCP-induced hyperlocomotion in mice (in words): inhibited
  Mice ED50 (mg/kg) PCP-Inh.: 3.1^ mg/kg
[2]; [4]
  ED50 (mg/kg) CAR-Inh.: ≥40* mg/kg

## FC(F)(F)Cc1nnc2c(Cl)c(N3CCC4(CC3)COc3ccccc34)ccn12 [compound 98]
Human mGluR2 receptor
  GTPγS - hR2 PAM pEC50: 6.75
[1]
  Mice ED50 (mg/kg) PCP-Inh.: >40 mg/kg
[3]
  L.A.D. (lowest active dose for significant reduction of 2DG uptake in hippocampus vs memantine response): ≤10 mg/kg, s.c.

## CC1(C)OC2(CCN(c3ccn4c(CC5CC5)nnc4c3C(F)(F)F)CC2)c2ccccc21 [compound 112, 1′-[3-cyclopropylmethyl-8-(trifluoromethyl)[1,2,4]triazolo[4,3-a]pyridin-7-yl]-3,3-dimethyl-3H-spiro[benzo[c]furan-1,4′-piperidine]]
Human mGluR2 receptor
  EC50: 6.46 nM
[1]
  ED50: 2 mg/kg
  inhibition of PCP-induced hyperlocomotion in mice (in words): inhibited
[3]
  L.A.D. (lowest active dose for significant reduction of 2DG uptake in hippocampus vs memantine response): ≤2.5 mg/kg, s.c.
other
  melting point: 207.7 °C

## CC1(c2ccccc2)CCN(c2ccn3c(CC4CC4)nnc3c2C(F)(F)F)CC1 [compound 151]
Human mGluR2 receptor
  GTPγS - hR2 PAM pEC50: 7.48
[1]
  inhibition of PCP-induced hyperlocomotion in mice (in words): inhibited
  Mice ED50 (mg/kg) PCP-Inh., estimated ED50 (footnote a): 12.6 ^a) mg/kg
[3]
  L.A.D. (lowest active dose for significant reduction of 2DG uptake in hippocampus vs memantine response): 10 mg/kg, s.c.

## c1ccc(C2CCN(c3ccn4c(CC5CC5)nnc4c3C3CC3)CC2)cc1 [compound 159, 3-Cyclopropylmethyl-8-cyclopropyl-7-(4-phenylpiperidin-1-yl)-[1,2,4]triazolo[4,3-a]pyridine]
Human mGluR2 receptor
  EC50: 204 nM
other
  melting point: > 300 °C

## CCc1c(N2CCC(c3ccccc3)CC2)ccn2c(CC3CC3)nnc12 [compound 171, 3-Cyclopropylmethyl-8-ethyl-7-(4-phenylpiperidin-1-yl)-[1,2,4]triazolo[4,3-a]pyridine]
Human mGluR2 receptor
  EC50: 251 nM
other
  melting point: > 300 °C

## C[C@@H]1CN(c2ccn3c(CC4CC4)nnc3c2C(F)(F)F)CCN1c1cc(F)cc(F)c1 [compound 182, 3-(Cyclopropylmethyl)-7-((3R)-4-3,5-difluorophenyl-3-methylpiperazin-1-yl)-(8-trifluoromethyl)-1,2,4-triazolo[4,3-a]pyridine]
Human mGluR2 receptor
  EC50: 93.3 nM
other
  melting point: 147.5 °C

## Cc1c(C2CCN(c3ccc(F)cc3F)CC2)ccn2c(CC3CC3)nnc12 [compound 204, 3-Cyclopropylmethyl-7-[1-(2,4-difluoro-phenyl)-piperidin-4-yl]-8-methyl-[1,2,4]triazolo[4,3-a]pyridine]
Human mGluR2 receptor
  EC50: 1350 nM
other
  melting point: 283.5 °C

## Brc1c(N2CCC(c3ccccc3)CC2)ccn2c(CC3CC3)nnc12 [compound 207, 8-Bromo-3-cyclopropylmethyl-7-[4-phenylpiperidin-1-yl]-[1,2,4]triazolo[4,3-a]pyridine]
Human mGluR2 receptor
  EC50: 35.5 nM
other
  melting point: 281.5 °C

## Fc1ccc(N2CCN(Cc3ccn4c(CC5CC5)nnc4c3C(F)(F)F)CC2)c(F)c1 [compound 224, 3-(Cyclopropylmethyl)-7-[[4-(2,4-difluorophenyl)-1-piperazinyl]methyl]-8-(trifluoromethyl)-1,2,4-triazolo[4,3-a]pyridine]
[1]
  inhibition of PCP-induced hyperlocomotion in mice (in words): inhibited
  Mice ED50 (mg/kg) PCP-Inh., estimated ED50 (footnote a): 2.0 ^a) mg/kg
[2]
  inhibition of the conditioned avoidance response in rats (in words): inhibited
[2]; [5]
  ED50: 5 mg/kg

## CC(c1ccn2c(CC3CC3)nnc2c1C(F)(F)F)N1CCC(c2ccccc2)CC1 (stereo not drawn) [compound 244, 3-cyclopropylmethyl-7-[1-(4-phenyl-1-piperidinyl)ethyl]-8-trifluoromethyl-1,2,4-triazolo[4,3-a]pyridine]
Human mGluR2 receptor
  EC50: 24 nM
[1]
  Mice ED50 (mg/kg) PCP-Inh., estimated ED50 (footnote a): 5.0 ^a) mg/kg
other
  melting point: 142.3 °C

## CC(c1ccn2c(CC3CC3)nnc2c1Cl)N1CCC(c2ccccc2)CC1 (stereo not drawn) [compound 255]
Human mGluR2 receptor
  EC50: 166 nM
other
  melting point: 182.1 °C

## Fc1cccc(F)c1N1CCN(Cc2ccn3c(CC4CC4)nnc3c2Cl)CC1 [compound 282]
Human mGluR2 receptor
  EC50: 204 nM
other
  melting point: 180.4 °C

## FC(F)(F)c1c(CN2CCC(c3ccccc3)CC2)ccn2c(CC3CC3)nnc12 [compound 298, 3-(Cyclopropylmethyl)-7-[(4-phenyl-1-piperidinyl)methyl]-8-(trifluoromethyl)-1,2,4-triazolo[4,3-a]pyridine]
[1]
  inhibition of PCP-induced hyperlocomotion in mice (in words): inhibited
  Mice ED50 (mg/kg) PCP-Inh., estimated ED50 (footnote a): 5.0 ^a) mg/kg
[2]
  inhibition of the conditioned avoidance response in rats (in words): inhibited
[2]; [5]
  ED50: 5 mg/kg

## O=C(CCCN1CCC(O)(c2ccc(Cl)cc2)CC1)c1ccc(F)cc1 [haloperidol, reference compound]
[3]; mouse brain, reference drugs
  effect on memantine-induced brain glucose metabolism / 2DG uptake (in words): inactive
